We go through eleven compounds from ChEMBL document CHEMBL1201862, “PubChem BioAssay data set” (2004).

What all share (assay): NCI tumour cell line growth inhibition, 48 h
The subject of experiment [1] is HL-60.
The test system of experiment [2] is HCT-15.
The test system of experiment [3] is NCI-H460.
The subject of experiment [4] is SF-268.
For experiment [5], the system named is M14.
The subject of experiment [6] is SN12C.
The subject of experiment [7] is SNB-19.
Experiment [8] relates to CCRF-CEM.
In experiment [9] the test system is NCI-H226.
Experiment [10] deals with EKVX.
Experiment [11] relates to SK-MEL-5.
Experiment [12] has as its system CAKI-1.
Experiment [13] relates to NCI-H23.
In experiment [14] the test system is 786-0.
Experiment [15] deals with OVCAR-5.
In experiment [16] the test system is SR.
For experiment [17], the system named is HT-29.
The test system of experiment [18] is SK-OV-3.
The test system of experiment [19] is HOP-92.
In experiment [20] the test system is HCC 2998.

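Five concentrations, 48 hours, 96-well plates. Here, GI50 denotes the concentration required for 50% inhibition of growth.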 Active and inactive are the calls of the source. Rule as the data show it: active = GI50 up to about 1.1 µM and inactive = higher.

Regarding `CCOC(=O)c1c(NC(=O)c2cccs2)sc2c1CCC2`, the GI50 is > 100 µM (inactive) in experiment [1]; above 100 µM in [2]; > 100 µM (inactive) in experiment [3]; > 100 µM (inactive) in [4]; > 100 µM (inactive) in experiment [5]; > 100 µM (inactive) in experiment [6]. Also, the GI50 in [7], in experiment [8], in [9], in experiment [10], in [11] and in experiment [12] was > 100 µM (inactive) each time. Also, the GI50 was > 100 µM (inactive) in experiment [13]; > 100 µM (inactive) in experiment [14]; > 100 µM (inactive) in experiment [15]; 73.3 µM (inactive) in experiment [16]; > 100 µM (inactive) in experiment [17].
For the compound `Cc1cc(O)nc(NNC(C#N)c2ccccc2O)n1` (centres undefined), the GI50 in experiment [1] is 3.72 µM (inactive); in experiment [2], 11.9 µM; in [3], 10.5 µM (inactive); in experiment [4] it was 13 µM (inactive); in experiment [18], 39.4 µM (inactive); in experiment [6], 73.6 µM (inactive). The GI50 in experiment [8] was 13.6 µM (inactive); in experiment [9], 31.1 µM (inactive); in [11] it was 19.9 µM (inactive); in experiment [12], 30.8 µM (inactive); in [13], 22.7 µM (inactive); in [14], 19.8 µM (inactive). Moreover, the GI50 in experiment [15] is 58.6 µM (inactive); in experiment [19], 75.5 µM (inactive); in experiment [16] it was 4.3 µM (inactive); in [17], 30.2 µM (inactive).
Take `COc1cc([C@H]2Oc3c(OC)cc(CCCO)cc3[C@@H]2CO)ccc1O` [DIHYDRODEHYDRODICONIFERY ALCOHOL]: the GI50 in experiment [1] was > 100 µM (inactive); in experiment [2], above 100 µM; in experiment [3], > 100 µM (inactive); in [4], > 100 µM (inactive); in experiment [5], > 100 µM (inactive); in [18] it was > 100 µM (inactive). Besides, the GI50 was > 100 µM (inactive) in [6]; > 100 µM (inactive) in experiment [7]; > 100 µM (inactive) in experiment [8]; > 100 µM (inactive) in experiment [9]; > 100 µM (inactive) in [10]; 39 µM (inactive) in experiment [11]. In addition, the GI50 in [20] is > 100 µM (inactive); in experiment [13], 54.5 µM (inactive); in [14], > 100 µM (inactive); in experiment [15] it was > 100 µM (inactive); in experiment [19], 89.5 µM (inactive); in experiment [16], > 100 µM (inactive). The GI50 in experiment [17] is > 100 µM (inactive).
In the case of `C=CCc1cc(-c2n[nH]c(=S)[nH]2)ccc1N/N=N/c1ccc(C(=O)O)cc1`, the GI50 in experiment [1] was 30.8 µM (inactive); in [2], above 100 µM; in experiment [4] it was 49.7 µM (inactive); in experiment [5], > 100 µM (inactive); in experiment [18], > 100 µM (inactive); in experiment [6], > 100 µM (inactive). Besides, the GI50 in [7] is > 100 µM (inactive); in experiment [8], 54 µM (inactive); in experiment [9], 42.4 µM (inactive); in [10], > 100 µM (inactive); in experiment [11] it was 16.7 µM (inactive); in [12] it was > 100 µM (inactive). Also, the GI50 in [13] was 48.1 µM (inactive); in experiment [14], > 100 µM (inactive); in experiment [15] it was > 100 µM (inactive); in experiment [19], > 100 µM (inactive); in experiment [16], 45.9 µM (inactive); in [17], > 100 µM (inactive).
Take `O=C(O)CC(CC(=O)O)n1cccc1`: the GI50 was > 100 µM (inactive) in experiment [1]; above 100 µM in [2]; > 100 µM (inactive) in experiment [3]; > 100 µM (inactive) in experiment [5]; > 100 µM (inactive) in experiment [18]; > 100 µM (inactive) in experiment [6]. Further, the GI50 in experiment [7], in experiment [8], in [9], in [10], in [11] and in [12] was > 100 µM (inactive) each time. Besides, the GI50 in experiment [13], in experiment [14], in experiment [15], in [19], in experiment [16] and in experiment [17] was > 100 µM (inactive) each time.
On to `OCCCc1ccc2c(c1)[C@H](CO)[C@@H](c1ccc(O)cc1)O2`, for which the GI50 in [1] was 78.2 µM (inactive); in [2] it was above 100 µM; in experiment [3], > 100 µM (inactive); in [4] it was > 100 µM (inactive); in experiment [5], > 100 µM (inactive); in [18], > 100 µM (inactive). Besides, the GI50 in experiment [6] was > 100 µM (inactive); in [7], > 100 µM (inactive); in experiment [8], 76 µM (inactive); in experiment [9], > 100 µM (inactive); in experiment [10], > 100 µM (inactive); in [11], 18.6 µM (inactive). Further, the GI50 was 16.6 µM (inactive) in experiment [20]; 35.8 µM (inactive) in [13]; > 100 µM (inactive) in experiment [14]; > 100 µM (inactive) in experiment [15]; > 100 µM (inactive) in [19]; 33.6 µM (inactive) in experiment [16]. For the same compound, the GI50 in experiment [17] was > 100 µM (inactive).
With `CNC1=CC(=O)C2=C(C1=O)[C@H]1CC[C@]3(C)C(=O)CC[C@H]3[C@@H]1CC2`, the GI50 in experiment [2] is 12.4 µM; in experiment [3] it was 18.5 µM (inactive); in [5], 13.5 µM (inactive); in experiment [18] it was 43.6 µM (inactive); in [6], 19.9 µM (inactive); in experiment [7], 17.7 µM (inactive). In addition, the GI50 in experiment [8] was 9.18 µM (inactive); in experiment [9] it was 12.4 µM (inactive); in experiment [10] it was 15.3 µM (inactive); in [11], 8.18 µM (inactive); in experiment [12], 13.6 µM (inactive); in experiment [20] it was 16 µM (inactive). Also, the GI50 in experiment [13] is 5.13 µM (inactive); in experiment [14], 17.3 µM (inactive); in experiment [15], 22.7 µM (inactive); in experiment [19], 12 µM (inactive); in experiment [16], 14.1 µM (inactive).
For `O=c1cc(-c2ccccc2)oc2cc(O)cc(O)c12` [CHRYSIN], the GI50 was 16.8 µM (inactive) in experiment [1]; 20.4 µM in experiment [2]; 14.2 µM (inactive) in experiment [3]; 23.1 µM (inactive) in experiment [4]; 33 µM (inactive) in experiment [5]; 27.9 µM (inactive) in [18]. Moreover, the GI50 is 17.9 µM (inactive) in experiment [6]; 18.5 µM (inactive) in experiment [7]; 19.4 µM (inactive) in experiment [8]; 20.6 µM (inactive) in experiment [9]; 23.1 µM (inactive) in experiment [10]; 10.1 µM (inactive) in [11]. For the same compound, the GI50 in [20] was 19.8 µM (inactive); in experiment [13], 20.9 µM (inactive); in [14], 23.6 µM (inactive); in [15], 18.6 µM (inactive); in experiment [19], 16.4 µM (inactive); in [16], 23 µM (inactive). Further, the GI50 in experiment [17] was 23.4 µM (inactive).
Consider `O=C1CC(=O)NC(NN2C(=O)CSC2c2ccc(Cl)c(Cl)c2)=N1` (centres undefined), for which the GI50 in experiment [2] is above 100 µM; in experiment [3] it was > 100 µM (inactive); in experiment [4], > 100 µM (inactive); in experiment [5], 31.6 µM (inactive); in [18], > 100 µM (inactive); in [6], > 100 µM (inactive). For the same compound, the GI50 was 19.5 µM (inactive) in experiment [8]; > 100 µM (inactive) in experiment [9]; > 100 µM (inactive) in [11]; > 100 µM (inactive) in [12]; > 100 µM (inactive) in experiment [20]; > 100 µM (inactive) in experiment [13]. Besides, the GI50 is > 100 µM (inactive) in experiment [14]; > 100 µM (inactive) in [15]; > 100 µM (inactive) in experiment [19]; 43.8 µM (inactive) in experiment [16]; 76.2 µM (inactive) in experiment [17].
Turning to `CCOC(=O)c1nnn(CCCCO)c1C(=O)OCC`, the GI50 in experiment [2] was above 100 µM; in [3], > 100 µM (inactive); in experiment [4], > 100 µM (inactive); in experiment [6], > 100 µM (inactive); in [7] it was 30.1 µM (inactive); in experiment [8] it was > 100 µM (inactive). For the same compound, the GI50 in experiment [9], in experiment [10], in experiment [11], in experiment [12], in [20] and in experiment [13] was > 100 µM (inactive) throughout. Also, the GI50 in experiment [14], in [19], in experiment [16] and in experiment [17] was > 100 µM (inactive) throughout.
`Cc1c(NC(=O)CSC(=S)N2CCN(Cc3ccccc3)CC2)c(=O)n(-c2ccccc2)n1C`: the GI50 in [2] was above 100 µM; in experiment [3], > 100 µM (inactive); in experiment [4], > 100 µM (inactive); in [5] it was > 100 µM (inactive); in [18] it was > 100 µM (inactive); in experiment [6] it was > 100 µM (inactive). Besides, the GI50 in experiment [7], in experiment [8], in [9], in [10], in experiment [11] and in experiment [12] was > 100 µM (inactive) each time. Also, the GI50 is 28.4 µM (inactive) in experiment [20]; > 100 µM (inactive) in experiment [13]; > 100 µM (inactive) in experiment [14]; > 100 µM (inactive) in [15]; > 100 µM (inactive) in experiment [16]; > 100 µM (inactive) in experiment [17].
